Results: US10375956B2, “Herbicidally active 2-(substituted-phenyl)-cyclopentane-1,3-dione compounds and derivatives thereof” (Syngenta Limited, priority 2013, dated 2019)

Tests used:
Type in all cases: in vivo
[1] = test system: Zea mays (ZEAMX, corn/maize); test: Test 1 glasshouse assay, pre-emergence herbicidal activity; conditions: 312 h, visual evaluation after 13 days, read-out: Percentage phytotoxicity ZEAMX
Method in brief: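 Pre-emergence spray 1 d post-sowing; acetone/water 50:50, 0.5% Tween 20 vehicle. Glasshouse 24/16° C, 14 h light, 65% RH. Visual % phytotoxicity at 13 d, 100% = total damage, 0% = none.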

Lolium perenne (LOLPE) = test: Test 2 glasshouse assay (IF50 formulation, X-77), pre-emergence herbicidal activity; conditions: 480 h, 250 g/ha, 20DAA, read-out: Percentage phytotoxicity LOLPE
Procedure: (§1) Seeds of a variety of monocotyledonous and dicotyledonous test plants are sown in standard soil in pots. The plants are cultivated for one day (for pre-emergence) or for about 12 days (for post-emergence) under controlled conditions in a glasshouse (warm climate species at 24/18° C., cool climate species at 20/16° C., both at day/night; 16 hours light; 65% humidity).
(§2) An “instant formulation”, known as the “IF50”, containing 50 g/liter (i.e. 5% w/v) of the “technical” (i.e. unformulated) active ingredient is prepared by dissolving the active ingredient in a mixture of organic solvents and emulsifier, details of which are provided in the Table below. This IF50 is then mixed with a small, variable amount of acetone to aid dissolution, before addition of a 0.2% v/v aqueous solution of the adjuvant X-77 (which is a mixture of alkyl aryl polyoxyethylene glycols and free fatty acids in isopropanol, CAS Registry number 11097-66-8), as the aqueous diluent, to form an aqueous spray solution which contains a predetermined concentration of the active ingredient (which varies depending on the application rate of the active ingredient to the plants) and 0.2% v/v of the adjuvant X-77. This aqueous spray solution is then sprayed onto the plants, after one day's cultivation (for pre-emergence), or after about 12 days' cultivation (range=10-13 days) (for post-emergence).
(§3) The test plants are then grown on, in a glasshouse (greenhouse) under controlled conditions (warm climate species at 24/18° C., cool climate species at 20/16° C., both at day/night; 16 hours light; 65% humidity) and are watered twice daily. 15 days after application of the test herbicide (15DAA) (for post-emergence), and 20 days after application of the test herbicide (20DAA) (for pre-emergence), the test plants are evaluated visually, and an assessed percentage phytotoxicity score is given for each herbicidal application on each plant species (with 100%=total damage to plant; 0%=no damage to plant).
Cool climate (“cool season”) grassy monocotyledonous weeds: Alopecurus myosuroides (ALOMY), Avena fatua (AVEFA), Lolium perenne (LOLPE).

[2] = test system: Brachiaria plantaginea (BRAPL); test: as above; conditions: Urochloa plantaginea, 480 h, 250 g/ha, 20DAA, read-out: Percentage phytotoxicity BRAPL
Procedure: as §1, §2, §3
(§4) Warm climate (“warm season”) grassy monocotyledonous weeds: Setaria faberi (SETFA), Panicum miliaceum (PANMI), Sorghum vulgare Pers. (SORVU) (or Sorghum bicolor (L) Moench ssp. Bicolor), Digitaria sanguinalis (DIGSA), Echinochloa crus-galli (ECHCG), and Brachiaria plantaginea (BRAPL).

[3] = test system: Digitaria sanguinalis (DIGSA); test: as above; conditions: 480 h, 250 g/ha, 20DAA, read-out: Percentage phytotoxicity DIGSA
Procedure: as §1, §2, §3, §4

[4] = test system: Echinochloa crus-galli (ECHCG); test: as above; conditions: 480 h, 250 g/ha, 20DAA, read-out: Percentage phytotoxicity ECHCG
Procedure: as §1, §2, §3, §4

[5] = test system: Panicum miliaceum (PANMI); test: as above; conditions: 480 h, 250 g/ha, 20DAA, read-out: Percentage phytotoxicity PANMI
Procedure: as §1, §2, §3, §4

Setaria faberi (SETFA) [6] = test: as above; conditions: 480 h, 250 g/ha, 20DAA, read-out: Percentage phytotoxicity SETFA
Procedure: as §1, §2, §3, §4

[7] = test system: Sorghum vulgare Pers. (SORVU); test: as above; conditions: Sorghum bicolor, 480 h, 250 g/ha, 20DAA, read-out: Percentage phytotoxicity SORVU
Procedure: as §1, §2, §3, §4

[8] = test system: Brachiaria plantaginea (BRAPL); test: Test 2 glasshouse assay (IF50 formulation, X-77), post-emergence herbicidal activity; conditions: Urochloa plantaginea, 360 h, 15 DAA, visual score, read-out: Post-emergence herbicidal activity (percentage phytotoxicity) BRAPL; for pest or weed control at 30 g/ha: application rate 30 g/ha; for pest or weed control at 250 g/ha: application rate 250 g/ha
Procedure: as §1, §2, §3, §4

[9] = test system: Digitaria sanguinalis (DIGSA); test: as above; conditions: 360 h, 15 DAA, visual score, read-out: Post-emergence herbicidal activity (percentage phytotoxicity) DIGSA; for pest or weed control at 30 g/ha: application rate 30 g/ha; for pest or weed control at 250 g/ha: application rate 250 g/ha
Procedure: as §1, §2, §3, §4

[10] = test system: Echinochloa crus-galli (ECHCG); test: as above; conditions: 360 h, 15 DAA, visual score, read-out: Post-emergence herbicidal activity (percentage phytotoxicity) ECHCG; for pest or weed control at 30 g/ha: application rate 30 g/ha; for pest or weed control at 250 g/ha: application rate 250 g/ha
Procedure: as §1, §2, §3, §4

[11] = test system: Panicum miliaceum (PANMI); test: as above; conditions: 360 h, 15 DAA, visual score, read-out: Post-emergence herbicidal activity (percentage phytotoxicity) PANMI; for pest or weed control at 30 g/ha: application rate 30 g/ha; for pest or weed control at 250 g/ha: application rate 250 g/ha
Procedure: as §1, §2, §3, §4

Setaria faberi (SETFA) [12] = test: as above; conditions: 360 h, 15 DAA, visual score, read-out: Post-emergence herbicidal activity (percentage phytotoxicity) SETFA; for pest or weed control at 30 g/ha: application rate 30 g/ha; for pest or weed control at 250 g/ha: application rate 250 g/ha
Procedure: as §1, §2, §3, §4

[13] = test system: Sorghum vulgare Pers. (SORVU); test: as above; conditions: Sorghum bicolor, 360 h, 15 DAA, visual score, read-out: Post-emergence herbicidal activity (percentage phytotoxicity) SORVU; for pest or weed control at 30 g/ha: application rate 30 g/ha; for pest or weed control at 250 g/ha: application rate 250 g/ha
Procedure: as §1, §2, §3, §4

`C#CCC1CC(=O)C(c2c(C)cc(-c3ncc(Cl)cc3F)cc2C)C1=O` (stereo not drawn) [Compound A3] gave a pest or weed control at 250 g/ha [1] of 100%, a pest or weed control at 250 g/ha (Lolium perenne (LOLPE)) of 80% and a pest or weed control at 250 g/ha [2] of 90%. It also gave a pest or weed control at 250 g/ha [3] of 90%, a pest or weed control at 250 g/ha [4] of 80% and a pest or weed control at 250 g/ha [5] of 80%. The pest or weed control at 250 g/ha (Setaria faberi (SETFA) [6]) was 80%, the pest or weed control at 250 g/ha [7] was 80% and the pest or weed control at 30 g/ha [8] was 80%. It also gave a pest or weed control at 250 g/ha [8] of 100%, a pest or weed control at 30 g/ha [9] of 100% and a pest or weed control at 250 g/ha [9] of 100%. It also gave a pest or weed control at 30 g/ha [10] of 100%, a pest or weed control at 250 g/ha [10] of 100% and a pest or weed control at 30 g/ha [11] of 100%. It also gave a pest or weed control at 250 g/ha [11] of 100%, a pest or weed control at 30 g/ha (Setaria faberi (SETFA) [12]) of 100% and a pest or weed control at 250 g/ha (Setaria faberi (SETFA) [12]) of 100%. It also gave a pest or weed control at 30 g/ha [13] of 100% and a pest or weed control at 250 g/ha [13] of 100%.

Compound `C#CCC1CC(=O)C(c2c(Cl)cc(-c3ccc(F)cc3)cc2OC)C1=O` (stereo not drawn) [Compound A7] has a pest or weed control at 250 g/ha [1] of 100%, a pest or weed control at 250 g/ha (Lolium perenne (LOLPE)) of 60% and a pest or weed control at 250 g/ha [2] of 90%. For the same compound, the pest or weed control at 250 g/ha [3] was 100%, the pest or weed control at 250 g/ha [4] was 90% and the pest or weed control at 250 g/ha [5] was 100%. It also gave a pest or weed control at 250 g/ha (Setaria faberi (SETFA) [6]) of 90%, a pest or weed control at 250 g/ha [7] of 90% and a pest or weed control at 30 g/ha [8] of 100%. It also gave a pest or weed control at 250 g/ha [8] of 100%, a pest or weed control at 30 g/ha [9] of 100% and a pest or weed control at 250 g/ha [9] of 100%. It also gave a pest or weed control at 30 g/ha [10] of 100%, a pest or weed control at 250 g/ha [10] of 100% and a pest or weed control at 30 g/ha [11] of 100%. It also gave a pest or weed control at 250 g/ha [11] of 100%, a pest or weed control at 30 g/ha (Setaria faberi (SETFA) [12]) of 90% and a pest or weed control at 250 g/ha (Setaria faberi (SETFA) [12]) of 100%. For the same compound, the pest or weed control at 30 g/ha [13] was 100% and the pest or weed control at 250 g/ha [13] was 100%.

With `C#CCC1CC(=O)C(c2c(F)cc(-c3ccc(Cl)cc3)cc2OC)C1=O` (stereo not drawn) [Compound A14] the pest or weed control at 250 g/ha [1] was 100%, the pest or weed control at 250 g/ha (Lolium perenne (LOLPE)) was 70% and the pest or weed control at 250 g/ha [2] was 100%. The pest or weed control at 250 g/ha [3] was 100%, the pest or weed control at 250 g/ha [4] was 80% and the pest or weed control at 250 g/ha [5] was 100%. The pest or weed control at 250 g/ha (Setaria faberi (SETFA) [6]) was 100%, the pest or weed control at 250 g/ha [7] was 90% and the pest or weed control at 125 g/ha ([8]; application rate 125 g/ha) was 30%. The pest or weed control at 125 g/ha ([9]; application rate 125 g/ha) was 100%, the pest or weed control at 125 g/ha ([10]; application rate 125 g/ha) was 100% and the pest or weed control at 125 g/ha ([11]; application rate 125 g/ha) was 60%. It also gave a pest or weed control at 125 g/ha (Setaria faberi (SETFA) [12]; application rate 125 g/ha) of 90% and a pest or weed control at 125 g/ha ([13]; application rate 125 g/ha) of 100%.
